Results from patent US12448483B2, “Process for preparing carboxylic acid ester-cross-linked polyglycerol esters of 3-hydroxybutyric acid” (KetoLipix Therapeutics GmbH, priority 2020, dated 2025).

Columns and labels:
[1] = Viscosity of samples from the structural analysis; format: physicochemical
Experimental: For structural analysis, a monodiglycerol ester of 3-hydroxybutyric acid crosslinked with succinic acid is produced according to synthesis route (A) and characterized by gel permeation chromatography (GPC) and acid number determination.
(§1) Subsequently, in the second method step (b), 100 g of the monodiglycerol ester of 3-hydroxybutyric acid are caused to react with 10 g succinic acid anhydride according to a first batch with stirring at 80° C. for 20 h and the water formed is continuously withdrawn by distillation. A sample is taken for further analysis (Sample A) and then another 7 g succinic acid anhydride are added and caused to react at 120° C. for another 6 h. The water formed is withdrawn by continuous distillation. Then another sample is taken for analysis (sample C).
as §1, with “Furthermore,” for “Subsequently,”, “(b), according to a second approach,” for “(b),”, “with the addition of 100 μL of titanium tetrabutylate (catalyst)” for “according to a first batch”, “(sample B)” for “(Sample A)”, “80°” for “120°”, “D).” for “C).”

[2] = even if several grams are taken; cited from earlier work

| Compound | Viscosity at 25° C. [1] | Duration of ketosis [2] |
| --- | --- | --- |
| monodiglycerol esters of 3-hydroxybutyric acid [Educt] | 15,700 Pas |  |
| CC(O)CC(=O)O (centres unmarked) [3-hydroxybutyric acid] |  | three to four |
